In patent US9452985B2, “Tau imaging probe” (GE Healthcare Limited, priority 2010, dated 2016):
Read-outs that look alike come from different tables or passages of the source.

Key:
K18-ΔK280 aggregates = K18-ΔK280 aggregates (Homo sapiens (Human), UniProt P10636, DEL597-597); assay: Competitive binding test using [^18F] THK-5105 as radioactive competitor; details: radioactive ligand [^18F] THK-5105 1.76 nM, K18-ΔK280 aggregates 200 nM, room temperature, one hour
Description: Regarding the binding of tau imaging probes to tau protein aggregates, a binding test was carried out and evaluated using a K18-ΔK280 construct which contained a 4-repeat structure involved in the formation of beta-sheet structures in the htau40 protein. For K18-ΔK280 (Martin von Bergen et al., THE JOURNAL OF BIOLOGICAL CHEMISTRY (2001), vol. 276, pp. 48165-48174; M. Goedert et al., NEURON (1989), vol. 3, pp. 519-526), an artificial gene fragment which was prepared based on its amino acid sequence was cloned into a pET-3a vector, the resulting plasmid was used to transform Escherichia coli BL21 (DE3) competent cells for protein expression, and the recombinant Escherichia coli cell was cultured to express K18-ΔK280. The K18-ΔK280 expressed was purified according to the method described in the literature (Stefan Barghorn et al., Methods in Molecular Biology, vol. 299, pp. 35-51). In the binding test, aggregates of the purified K18-ΔK280 were made and used.
K18-ΔK280 aggregates were made by preparing 20 μM PBS (pH 7.4) and incubating the K18-ΔK280 in the PBS at 37° C. for 4 days. The state where beta-sheet structures in K18-ΔK280 aggregates were formed was ascertained by thioflavin S fluorescence binding test. The aggregates solution was diluted to 400 nM in assay buffer (PBS, 0.1% BSA) and used in the binding test.
For tau imaging probes other than THK-5105, binding to K18-ΔK280 aggregates was evaluated with a competitive binding test using [^18F] THK-5105 as a radioactive competitor. In the binding test, [^18F] THK-5105 (at a final concentration of 1.76 nM) and a tested compound (at final concentrations of from 0.1 to 1000 nM) coexisted in the reaction system, to which K18-ΔK280 aggregates (at a final concentration of 200 nM) was then added and the mixtures were incubated at room temperature for one hour. The radioactivity of [^18F] THK-5105 binding to the aggregates was determined in a similar way as in the saturation binding test of THK-5105. The percentage of [^18F] THK-5105 bonding in the absence of each tested compound was set to be 100%, and percentages of [^18F] THK-5105 bonding at various concentrations of each of the tested compounds were determined.

neurofibrillary tangles = assay: Staining test on brain section of Alzheimer's disease patients; type: binding, human; details: 100 μM solution in 50% ethanol, 10 minutes, fluorescence microscope
Excerpt: The procedure of staining test on the compounds of the present invention on the brain section of Alzheimer's disease patients is described below:
(1) We used the brain specimens of the temporal lobe or hippocampus from patients who were definitely diagnosed as having Alzheimer's disease pathology. The specimens were obtained from Choju Medical Institute, Fukushimura Hospital, our collaborating research institute, and the consent for use for research purposes was obtained from the patients' bereaved family (Fukushimura Hospital, Ethics Committee Approval No. 20).
(2) The paraffin-embedded brain tissue was sliced to 6 or 8 μm thickness, extended on a slide glass, and dried. The paraffinized brain section was deparaffinized by washing with xylene for 10 minutes×2, 100% ethanol for 5 minutes×2, 90% ethanol for 5 minutes, and running water for 10 minutes in this order.
(3) As a pretreatment for staining with the compounds of the present invention, the treatment to remove autofluorescence with lipofuscin was performed. First, the paraffinized brain section was immersed in 0.25% KMnO4 solution for 20 minutes. It was washed with PBS for 2 minutes twice, immersed in a 0.1% K2S2O5/oxalic acid solution for approximately 5 minutes, and further washed with PBS for 2 minutes 3 times.
(4) From 100 μM solution of the compounds of the present invention dissolved in 50% ethanol, approximately 150 μl was dropped on the section to react for 10 minutes. After being immersed in tap water 5 times, it was mounted with Flour Save Reagent (Calbiochem) and examined with a fluorescence microscope (Nikon, ECLIPSE 80i). The images were taken with a digital camera (Nikon, Dxin1200F or Photometrics, Cool SNAP ES).

[1] = tested on: neurofibrillary tangles (tau protein); assay: Autoradiography experiments using [^18F] THK-5105, [^18F] THK-5117 and [^18F] THK-5125; type: binding, human; details: for affinity to neurofibrillary tangles (tau protein), autoradiography / accumulation in autoradiography of sections of the lateral temporal cortex and of the medial temporal cortex: Alzheimer's disease patient brain sections; for accumulation in autoradiography of sections of the lateral temporal cortex and of the medial temporal cortex: approximately 400 μCi/ml, 10 minutes
Description: Paraffin-embedded sections of the brain from an Alzheimer's disease patient were deparaffinized, and then immersed in PBS for 10 minutes. Approximately 400 μCi/ml of each of [^18F] THK-5105, [^18F] THK-5117, and [^18F] THK-5125 was added dropwise to deparaffinized sections and allowed to react for 10 minutes at room temperature. After that, the sections were immersed in distilled water for 2 minutes, shaken lightly in 50% EtOH for 2 minutes, immersed again in distilled water for 2 minutes, and dried in a paraffin stretching device. The section was left overnight in contact with an imaging plate. Next day, the image was read with a BAS 5000 (Fujifilm Corporation). In addition, adjacent sections were immunostained with anti-phosphorylated tau antibody (AT8).

[2] = Evaluation of brain delivery of [^18F] THK-5105, [^18F] THK-5117 and [^18F] THK-5125 in mice; type: in vivo, male ICR mice; details: for delivery to and washout from the brain / % ID/g 2 minutes post-administration: mice; for delivery to and washout from the brain: compared with [^18F] BAY94-9172, [^18F] AV-45 and [^18F] FDDNP; for % ID/g 2 minutes post-administration: tail vein, brain; for 2 minutes post-administration/60 minutes post-administration: quotient of brain % ID/g values
Description: A physiological saline solution containing [^18F] THK-5105, [^18F] THK-5117, or [^18F] THK-5125 was administered into the tail vein of male ICR mice (6 to 7 weeks old), and brain delivery of these label compounds was assessed from the accumulation of radioactivity in brain and plasma tissues at two minutes post-injection.
As an index in the evaluation of radioactive accumulation, use was made of the percentage of radioactivity per unit weight of brain relative to the total radioactivity administered (% Injected Dose/g of tissue; % ID/g). For measurement of radioactivity, a gamma counter (1480 WIZARD, Perkin Elmer) was used. Experimental procedures were as follows. A label compound was administered into the tail vein of mice. Two minutes later, each mouse was subjected to cervical dislocation under ether anesthesia, and the whole brain, including the cerebellum and brain stem, was isolated immediately. The radioactivity and tissue weight of the sample were measured, and their data were used to calculate a % ID/g values for the labeled compound.

[3] = as above; type: in vivo, male ICR mice; details: tail vein
[4] = data taken from Zhang et al. 2005 / Choi et al. 2009, cited from earlier work; for % ID/g 2 minutes post-administration / % ID/g 60 minutes post-administration: brain; for 2 minutes post-administration/60 minutes post-administration: quotient of brain % ID/g values

K18-ΔK280 aggregates, sequence (P10636 other isoform, or with tags, fused parts or gaps del 597-597): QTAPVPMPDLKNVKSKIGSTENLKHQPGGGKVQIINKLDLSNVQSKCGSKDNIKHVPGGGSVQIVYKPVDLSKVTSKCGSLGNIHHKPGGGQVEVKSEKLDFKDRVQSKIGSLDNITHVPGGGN

CC(=C(C#N)C#N)c1ccc2cc(N(C)CCF)ccc2c1 [FDDNP, reference compound]
Ki (K18-ΔK280 aggregates): 256 nM

Nc1ccc(-c2ccc3cc(OCCF)ccc3n2)cc1 [THK-523, reference compound]
Ki (K18-ΔK280 aggregates): 59.3 nM

Nc1ccc(-c2ccc3cc(OCC(O)CF)ccc3n2)cc1 (stereo not shown) [THK-5116, 2-(4-aminophenyl)-6-[(3-fluoro-2-hydroxy)propoxy]quinoline]
Ki (K18-ΔK280 aggregates): 36 nM | binding to neurofibrillary tangles in the brain section of Alzheimer's disease patients (staining test) (neurofibrillary tangles): bind to neurofibrillary tangles specifically and selectively

CNc1ccc(-c2ccc3cc(OCC(O)CF)ccc3n2)cc1 (stereo not shown) [THK-5117, 6-[(3-fluoro-2-hydroxy)propoxy]-2-(4-methylaminophenyl)quinoline]
Ki (K18-ΔK280 aggregates): 10.5 nM | binding to neurofibrillary tangles in the brain section of Alzheimer's disease patients (staining test) (neurofibrillary tangles): bind to neurofibrillary tangles specifically and selectively

CCN(CC)c1ccc(-c2ccc3cc(OCC(O)CF)ccc3n2)cc1 (stereo not shown) [THK-5122, 6-[(3-fluoro-2-hydroxy)propoxy]-2-(4-diethylaminophenyl)quinoline]
Ki (K18-ΔK280 aggregates): 34.9 nM

CCNc1ccc(-c2ccc3cc(OCC(O)CF)ccc3n2)cc1 (stereo not shown) [THK-5125, 2-(4-ethylaminophenyl)-6-[(3-fluoro-2-hydroxy)propoxy]quinoline]
Ki (K18-ΔK280 aggregates): 9.2 nM

CN(C)c1ccc(-c2ccc3cc(OCC(O)CF)ccc3n2)cn1 (stereo not shown) [THK-5129, 6-[(3-fluoro-2-hydroxy)propoxy]-2-(2-dimethylaminopyrid-5-yl)quinoline]
Ki (K18-ΔK280 aggregates): 21.4 nM

CNc1ccc(-c2ccc3cc(OCC(O)CF)ccc3n2)cn1 (stereo not shown) [THK-5151, 2-(2-methylaminopyrid-5-yl)-6-[(3-fluoro-2-hydroxy)propoxy]quinoline]
Ki (K18-ΔK280 aggregates): 40.1 nM

CN1CCCc2cc(-c3ccc4cc(OCC(O)CF)ccc4n3)ccc21 (stereo not shown) [THK-5153, 6-[(3-fluoro-2-hydroxy)propoxy]-2-(1-methyl-1,2,3,4-tetrahydroquinolin-6-yl)quinoline]
binding to neurofibrillary tangles in the brain section of Alzheimer's disease patients (staining test) (neurofibrillary tangles): bind to neurofibrillary tangles specifically and selectively

Nc1ccc2nc(-c3ccc(N)c(OCC(O)CF)c3)ccc2c1 (stereo not shown) [THK-5155, 6-amino-2-[4-(amino)-3-[(3-fluoro-2-hydroxy)propoxy]phenyl]quinoline]
binding to neurofibrillary tangles in the brain section of Alzheimer's disease patients (staining test) (neurofibrillary tangles): bind to neurofibrillary tangles specifically and selectively

CN(C)c1ccc2nc(-c3ccc(N(C)C)c(OCC(O)CF)c3)ccc2c1 (stereo not shown) [THK-5156, 2-[3-[(3-fluoro-2-hydroxy)propoxy]-4-(dimethylamino)phenyl]-6-dimethylaminoquinoline]
binding to neurofibrillary tangles in the brain section of Alzheimer's disease patients (staining test) (neurofibrillary tangles): bind to neurofibrillary tangles specifically and selectively

CN1CCCc2cc(-c3ccc4cc(OC(C)(C)C(O)CF)ccc4n3)ccc21 (stereo not shown) [THK-5157, 6-[(3-fluoro-2-hydroxy-1,1-dimethyl)propoxy]-2-(1-methyl-1,2,3,4-tetrahydroquinolin-6-yl)quinoline]
binding to neurofibrillary tangles in the brain section of Alzheimer's disease patients (staining test) (neurofibrillary tangles): bind to neurofibrillary tangles specifically and selectively

CNc1ccc(-c2ccc3cc(N(C)C)ccc3n2)cc1OCC(O)CF (stereo not shown) [THK-5164, 2-[3-[(3-fluoro-2-hydroxy)propoxy]-4-(methylamino)phenyl]-6-dimethylamino quinoline]
binding to neurofibrillary tangles in the brain section of Alzheimer's disease patients (staining test) (neurofibrillary tangles): bind to neurofibrillary tangles specifically and selectively

CN(C)c1ccc(-c2ccc3cc(OC[C@H](O)C[18F])ccc3n2)cc1 [[^18F] THK-5105]
affinity to neurofibrillary tangles (tau protein), autoradiography [1]: high affinity to neurofibrillary tangles (tau protein) | accumulation in autoradiography of sections of the lateral temporal cortex and of the medial temporal cortex [1]: accumulated in the lateral temporal cortex and medial temporal cortex | correspondence of autoradiography / unlabeled staining image with anti-phosphorylated tau antibody (AT8) immunostaining ([1]; hippocampus section and adjacent sections, higher magnification images): corresponded well with the image of immunostaining with the anti-phosphorylated tau antibody | delivery to and washout from the brain [2]: superior in being delivered to and washed out from the brain | % ID/g 2 minutes post-administration [2]: 9.20 % ID/g | 2 minutes post-administration/60 minutes post-administration [2]: 9.20 | % ID/g 60 minutes post-administration [3]: 1.00 % ID/g

CNc1ccc(-c2ccc3cc(OCC(O)C[18F])ccc3n2)cc1 (stereo not shown) [[^18F] THK-5117]
affinity to neurofibrillary tangles (tau protein), autoradiography [1]: high affinity to neurofibrillary tangles (tau protein) | accumulation in autoradiography of sections of the lateral temporal cortex and of the medial temporal cortex [1]: accumulated in the lateral temporal cortex and medial temporal cortex | delivery to and washout from the brain [2]: superior in being delivered to and washed out from the brain | % ID/g 2 minutes post-administration [2]: 6.06 % ID/g | 2 minutes post-administration/60 minutes post-administration [2]: 23.3 | % ID/g 60 minutes post-administration [3]: 0.26 % ID/g

CNc1ccc(/C=C/c2ccc(OCCOCCOCC[18F])nc2)cc1 [[^18F]AV-45]
% ID/g 2 minutes post-administration [4]: 7.33 % ID/g | % ID/g 60 minutes post-administration [4]: 1.88 % ID/g | 2 minutes post-administration/60 minutes post-administration [4]: 3.90

CNc1ccc(/C=C/c2ccc(OCCOCCOCC[18F])cc2)cc1 [[^18F]BAY94-9172]
% ID/g 2 minutes post-administration [4]: 7.77 % ID/g | % ID/g 60 minutes post-administration [4]: 1.61 % ID/g | 2 minutes post-administration/60 minutes post-administration [4]: 4.83

CC(=C(C#N)C#N)c1ccc2cc(N(C)CCF)ccc2c1 [[^18F]FDDNP, reference compound]
% ID/g 2 minutes post-administration [2]: 6.23 % ID/g | 2 minutes post-administration/60 minutes post-administration [2]: 2.91 | % ID/g 60 minutes post-administration [3]: 2.14 % ID/g
